In patent US20250367302A1, “SMALL MOLECULE DRUG-OLIGONUCLEOTIDE CONJUGATE AND USE THEREOF” (SHANGHAI JIAO TONG UNIVERSITY, priority 2022, published 2025):

Columns and labels:
[1] = system: mice with xerophthalmia (0.2% benzalkonium chloride); assay: Benzalkonium chloride xerophthalmia mouse model: sodium fluorescein staining and phenol red cotton thread tear test; format: in vivo, mouse (C57BL/6)
Protocol: The ocular xerophthalmia model was established in 6-8 weeks old mice (C57BL/6, Suzhou Xishan Biotechnology Co., Ltd.) with 0.2% benzalkonium chloride. 5 μL of 0.2% benzalkonium chloride was dripped into each eye of the mice, once in the morning and once in the evening every day, for two consecutive weeks. After successful modeling, the hospital-prepared CsA eye drops (400 µM CsA, referred to as hospital-prepared CsA eye drops or CsA eye drops, provided by the Eye, Ear, Nose and Throat Hospital Affiliated to Fudan University School of Medicine, Shanghai) and CsA-ASONFKBIZ-m (400 µM CsA) were used for eye drops treatment, 5 μL per eye, once in the morning and once in the evening. Sodium fluorescein staining and phenol red cotton thread tear secretion test were conducted on days 0, 7, and 14 of treatment to evaluate the therapeutic effect.
(§1) The ocular xerophthalmia model was established in 6-8 weeks old mice (C57BL/6, Suzhou Xishan Biotechnology Co., Ltd.) with 0.2% benzalkonium chloride. 5 μL of 0.2% benzalkonium chloride was dripped into each eye of the mice, once in the morning and once in the evening every day, for two consecutive weeks. After successful modeling, the hospital-prepared CsA eye drops (400 μM CsA, provided by the Eye, Ear, Nose and Throat Hospital Affiliated to Fudan University School of Medicine, Shanghai) and 2CsA-ASONFKBIZ-m (400 µM CsA) were used for eye drops treatment, 5 μL per eye, once in the morning and once in the evening. Sodium fluorescein staining and phenol red cotton thread tear secretion test were conducted on days 0, 7, and 14 of treatment to evaluate the therapeutic effect.
as §1, with “µM” for “μM”, “provided” for “provided by”, “3CsA-ASONFKBIZ-m nanomicelles (133 µM ASO concentration, 400” for “2CsA-ASONFKBIZ-m (400”
as §1, with “CsA3-ASONFKBIZ-m nanomicelles” for “2CsA-ASONFKBIZ-m”, “0” for “0, 7,”
The ocular xerophthalmia model was established in 6-8 weeks old mice (C57BL/6, Suzhou Xishan Biotechnology Co., Ltd.) using 0.2% benzalkonium chloride. 5 μL of 0.2% benzalkonium chloride was dripped into each eye of the mouse, once in the morning and once in the evening every day for two weeks. After successful modeling, the hospital-prepared CsA eye drops (400 µM CsA, provided by the Eye, Ear, Nose and Throat Hospital Affiliated to Fudan University School of Medicine, Shanghai) and CsA-siRNANFKBIZ-m (400 µM CsA), 2CsA-siRNANFKBIZ-m nanomicelles (400 µM CsA), 3CsA-siRNANFKBIZ-m nanomicelles (400 µM CsA) were used for eye drops treatment, 5 μL per eye, once in the morning and once in the evening. […]

[2] = system: psoriasis-like model mice (5% imiquimod cream); assay: Imiquimod psoriasis-like mouse model, smear administration in carbomer gel; format: in vivo; conditions: nanomicelles in carbomer gel applied to skin lesions, after 7 d of treatment
Protocol: (§2) The psoriasis model on the back and ears of 6-8 weeks old mice (C57BL/6, Suzhou Xishan Biotechnology Co., Ltd.) was established with 5% imiquimod cream. After removing the hair on the back of the mice, 60 mg of 5% imiquimod cream was applied to the back and ears of each mouse for 6 consecutive days. […] CsA3-ASONFKBIZ-m nanomicelles were mixed with carbomer gel and applied to the skin lesions for treatment. The carbomer gel without CsA3-ASONFKBIZ-m nanomicelles was used as a control group (control) for efficacy testing. On the 7 d of treatment, the thickness of the skin at the back lesions and the thickness of the ears were measured, and the erythema, scaling, skin thickening, and severity of the psoriasis lesions were scored. The results were shown in FIG. 54, FIGS. 55A-55B, and FIGS. 56A-56D.
as §2, with “mice” for “mice (C57BL/6, Suzhou Xishan Biotechnology Co., Ltd.)”, “10TA-ASONFKBIZ-m” for “CsA3-ASONFKBIZ-m”, “The carbomer gel without CsA3-ASONFKBIZ-m nanomicelles was used as a control group (control) for efficacy testing.” left out, “The results were shown in FIG. 54, FIGS. 55A-55B, and FIGS. 56A-56D.” left out

[3] = eye drops 5 μL per eye twice daily, 400 μM CsA (10RAP: 400 μM rapamycin), day 14
[4] = xerophthalmia mice, baseline of the treatment group

CsA3-ASONFKBIZ-m: CsA trimer on tripropargyl linker at 3′ end of ASO targeting mouse NFKBIZ (SEQ ID NO: 8) (AATACTGGTACATTGACGCC; 3'-NHS ASO with tripropargyl linker carrying three cyclosporin A, chemistry not given here, further chemistry not given here)
phenol red cotton thread infiltration length (tear secretion) after 14 d of treatment [1, 3]: about 3.5 mm
sodium fluorescein staining eye score after 14 d of treatment [1, 3]: about 6 points
phenol red cotton thread infiltration length (tear secretion), day 0 (before treatment) [1, 4]: 1.5 mm
sodium fluorescein staining eye score, day 0 (before treatment) [1, 4]: 10 points
erythema and scaling of the skin lesions versus control group [2]: significantly reduced
skin thickness of the lesions (and ears) versus control group [2]: reduced
